Earlier results as cited in patent US20260021069A1, “ADVANTAGEOUS FLUOROB[…] THE TREATMENT OF MENTAL DISORDERS OR ENHANCEMENT” (TACTOGEN INC, priority 2023, published 2026).

Tests used:
DAT and NET = conditions: Rothman et al. 2001
DAT and SERT [1] = conditions: uptake inhibition IC50 based; literature value
DAT and SERT [2] = conditions: release based; Rothman et al. 2012
[3] = after 75 or 125 mg MDMA; standard deviation of 1.3 hours; Vizeli & Liechti 2017

Structure (SMILES) | DAT/NET EC50 ratio (DAT and NET) | DAT/SERT ratio (1/IC50 at DAT divided by 1/IC50 at SERT) (DAT and SERT [1]) | DAT/SERT EC50 ratio (DAT and SERT [2]) | duration of acute therapeutic effects [3] [h]
C[C@H](N)Cc1ccccc1 [d-amphetamine] | 0.9 | – | – | –
CN[C@@H](C)Cc1ccccc1 [d-methamphetamine] | 0.5 | – | – | –
CCNC(C)Cc1ccc2c(c1)OCO2 (stereo not drawn) [MDEA, 3,4-methylenedioxy-N-ethylamphetamine] | – | 3.2 | 0.76 | –
CNC(C)Cc1ccc2c(c1)OCO2 (stereo not drawn) [MDMA] | – | 0.08 | – | 4.2
